Measurements from patent US7442541B2, “β-glucan-containing fat and oil composition and novel microorganism capable of producing β-glucan” (Adeka Corporation, priority 2002, dated 2008).

Key:
Test in all cases: Cycloheximide resistance test
ADK-82 = type: cell-based, Aureobasidium pullulans; conditions: strain ADK-82, YM agar, 26° C., 10 days
Experimental: (§1) The strains obtained by the screening in Test Examples 1 and 2 and IFO-4466, IFO-6353, and IFO-7757 purchased from Institute for Fermentation, Osaka, i.e., were tested for cycloheximide resistance as follows. Each strain was grown on YM agar medium (Difco) at 26° C. for 5 days. YM agar media (Difco) containing 5, 10, 20, 40, and 80 μg/ml of cycloheximide were prepared. The grown strain was inoculated into each of the cycloheximide-containing media using a sterile toothpick and incubated at 26° C. for 10 days. The plates were examined for colonies. The diameters of the colonies, if formed, were measured.

IFO-6353 = type: cell-based, Aureobasidium pullulans; conditions: strain IFO-6353, YM agar, 26° C., 10 days
Experimental: as §1

ADK-77 = type: cell-based, Aureobasidium pullulans; conditions: strain ADK-77, YM agar, 26° C., 10 days
Experimental: as §1

IFO-4466 = type: cell-based, Aureobasidium pullulans; conditions: strain IFO-4466, YM agar, 26° C., 10 days
Experimental: as §1

ADK-71 = type: cell-based, Aureobasidium pullulans; conditions: strain ADK-71, YM agar, 26° C., 10 days
Experimental: as §1

IFO-7757 = type: cell-based, Aureobasidium pullulans; conditions: strain IFO-7757, YM agar, 26° C., 10 days
Experimental: as §1

ADK-34 = type: cell-based, Aureobasidium pullulans; conditions: strain ADK-34, YM agar, 26° C., 10 days
Experimental: as §1

ADK-31 = type: cell-based; conditions: strain ADK-31, YM agar, 26° C., 10 days
Experimental: as §1

ADK-6 = type: cell-based; conditions: strain ADK-6, YM agar, 26° C., 10 days
Experimental: as §1

ADK-1 = type: cell-based; conditions: strain ADK-1, YM agar, 26° C., 10 days
Experimental: as §1

ADK-10 = type: cell-based; conditions: strain ADK-10, YM agar, 26° C., 10 days
Experimental: as §1

ADK-20 = type: cell-based; conditions: strain ADK-20, YM agar, 26° C., 10 days
Experimental: as §1

ADK-4 = type: cell-based; conditions: strain ADK-4, YM agar, 26° C., 10 days
Experimental: as §1

ADK-17 = type: cell-based; conditions: strain ADK-17, YM agar, 26° C., 10 days
Experimental: as §1

ADK-24 = type: cell-based; conditions: strain ADK-24, YM agar, 26° C., 10 days
Experimental: as §1

ADK-28 = type: cell-based; conditions: strain ADK-28, YM agar, 26° C., 10 days
Experimental: as §1

ADK-42 = type: cell-based; conditions: strain ADK-42, YM agar, 26° C., 10 days
Experimental: as §1

ADK-8 = type: cell-based; conditions: strain ADK-8, YM agar, 26° C., 10 days
Experimental: as §1

`C[C@@H]1C[C@@H]([C@H](O)CC2CC(=O)NC(=O)C2)C(=O)[C@@H](C)C1` [Cycloheximide, cycloheximide] showed a Colony diameter (ADK-82; cycloheximide 5 μg/ml) of 10.4 mm, a Colony diameter (ADK-82; cycloheximide 10 μg/ml) of 2.9 mm and a Colony diameter (ADK-82; cycloheximide 20 μg/ml) of 1.5 mm. The Colony diameter (ADK-82; cycloheximide 40 μg/ml) was 1.2 mm, the Colony diameter (ADK-82; cycloheximide 80 μg/ml) was 0 mm and the Colony diameter (IFO-6353; cycloheximide 5 μg/ml) was 7.3 mm. It also gave a Colony diameter (IFO-6353; cycloheximide 10 μg/ml) of 2.3 mm, a Colony diameter (IFO-6353; cycloheximide 20 μg/ml) of 0 mm and a Colony diameter (IFO-6353; cycloheximide 40 μg/ml) of 0 mm. For the same compound, the Colony diameter (IFO-6353; cycloheximide 80 μg/ml) was 0 mm, the Colony diameter (ADK-77; cycloheximide 5 μg/ml) was 9.5 mm and the Colony diameter (ADK-77; cycloheximide 10 μg/ml) was 4.1 mm. It also gave a Colony diameter (ADK-77; cycloheximide 20 μg/ml) of 0.8 mm, a Colony diameter (ADK-77; cycloheximide 40 μg/ml) of 0 mm and a Colony diameter (ADK-77; cycloheximide 80 μg/ml) of 0 mm. It also gave a Colony diameter (IFO-4466; cycloheximide 5 μg/ml) of 4.4 mm, a Colony diameter (IFO-4466; cycloheximide 10 μg/ml) of 0 mm and a Colony diameter (IFO-4466; cycloheximide 20 μg/ml) of 0 mm. For the same compound, the Colony diameter (IFO-4466; cycloheximide 40 μg/ml) was 0 mm, the Colony diameter (IFO-4466; cycloheximide 80 μg/ml) was 0 mm and the Colony diameter (ADK-71; cycloheximide 5 μg/ml) was 7.6 mm. The Colony diameter (ADK-71; cycloheximide 10 μg/ml) was 4.1 mm, the Colony diameter (ADK-71; cycloheximide 20 μg/ml) was 1.8 mm and the Colony diameter (ADK-71; cycloheximide 40 μg/ml) was 1.2 mm. It also gave a Colony diameter (ADK-71; cycloheximide 80 μg/ml) of 0 mm, a Colony diameter (IFO-7757; cycloheximide 5 μg/ml) of 0 mm and a Colony diameter (IFO-7757; cycloheximide 10 μg/ml) of 0 mm. The Colony diameter (IFO-7757; cycloheximide 20 μg/ml) was 0 mm, the Colony diameter (IFO-7757; cycloheximide 40 μg/ml) was 0 mm and the Colony diameter (IFO-7757; cycloheximide 80 μg/ml) was 0 mm. For the same compound, the Colony diameter (ADK-34; cycloheximide 5 μg/ml) was 13.6 mm, the Colony diameter (ADK-34; cycloheximide 10 μg/ml) was 6.7 mm and the Colony diameter (ADK-34; cycloheximide 20 μg/ml) was 5.1 mm. It also gave a Colony diameter (ADK-34; cycloheximide 40 μg/ml) of 3.7 mm, a Colony diameter (ADK-34; cycloheximide 80 μg/ml) of 0.5 mm and a Colony diameter (ADK-31; cycloheximide 5 μg/ml) of 6.3 mm. For the same compound, the Colony diameter (ADK-31; cycloheximide 10 μg/ml) was 1.7 mm, the Colony diameter (ADK-31; cycloheximide 20 μg/ml) was 0 mm and the Colony diameter (ADK-31; cycloheximide 40 μg/ml) was 0 mm. The Colony diameter (ADK-31; cycloheximide 80 μg/ml) was 0 mm, the Colony diameter (ADK-6; cycloheximide 5 μg/ml) was 7.1 mm and the Colony diameter (ADK-6; cycloheximide 10 μg/ml) was 0 mm. It also gave a Colony diameter (ADK-6; cycloheximide 20 μg/ml) of 0 mm, a Colony diameter (ADK-6; cycloheximide 40 μg/ml) of 0 mm and a Colony diameter (ADK-6; cycloheximide 80 μg/ml) of 0 mm. The Colony diameter (ADK-1; cycloheximide 5 μg/ml) was 0 mm, the Colony diameter (ADK-1; cycloheximide 10 μg/ml) was 0 mm and the Colony diameter (ADK-1; cycloheximide 20 μg/ml) was 0 mm. For the same compound, the Colony diameter (ADK-1; cycloheximide 40 μg/ml) was 0 mm, the Colony diameter (ADK-1; cycloheximide 80 μg/ml) was 0 mm and the Colony diameter (ADK-10; cycloheximide 5 μg/ml) was 8.5 mm. For the same compound, the Colony diameter (ADK-10; cycloheximide 10 μg/ml) was 0 mm, the Colony diameter (ADK-10; cycloheximide 20 μg/ml) was 0 mm and the Colony diameter (ADK-10; cycloheximide 40 μg/ml) was 0 mm. The Colony diameter (ADK-10; cycloheximide 80 μg/ml) was 0 mm, the Colony diameter (ADK-20; cycloheximide 5 μg/ml) was 6.2 mm and the Colony diameter (ADK-20; cycloheximide 10 μg/ml) was 0 mm. It also gave a Colony diameter (ADK-20; cycloheximide 20 μg/ml) of 0 mm, a Colony diameter (ADK-20; cycloheximide 40 μg/ml) of 0 mm and a Colony diameter (ADK-20; cycloheximide 80 μg/ml) of 0 mm. For the same compound, the Colony diameter (ADK-4; cycloheximide 5 μg/ml) was 8.5 mm, the Colony diameter (ADK-4; cycloheximide 10 μg/ml) was 0 mm and the Colony diameter (ADK-4; cycloheximide 20 μg/ml) was 0 mm. For the same compound, the Colony diameter (ADK-4; cycloheximide 40 μg/ml) was 0 mm, the Colony diameter (ADK-4; cycloheximide 80 μg/ml) was 0 mm and the Colony diameter (ADK-17; cycloheximide 5 μg/ml) was 6.7 mm. It also gave a Colony diameter (ADK-17; cycloheximide 10 μg/ml) of 0 mm, a Colony diameter (ADK-17; cycloheximide 20 μg/ml) of 0 mm and a Colony diameter (ADK-17; cycloheximide 40 μg/ml) of 0 mm. It also gave a Colony diameter (ADK-17; cycloheximide 80 μg/ml) of 0 mm, a Colony diameter (ADK-24; cycloheximide 5 μg/ml) of 9.1 mm and a Colony diameter (ADK-24; cycloheximide 10 μg/ml) of 2.5 mm. It also gave a Colony diameter (ADK-24; cycloheximide 20 μg/ml) of 0 mm, a Colony diameter (ADK-24; cycloheximide 40 μg/ml) of 0 mm and a Colony diameter (ADK-24; cycloheximide 80 μg/ml) of 0 mm. The Colony diameter (ADK-28; cycloheximide 5 μg/ml) was 7.1 mm, the Colony diameter (ADK-28; cycloheximide 10 μg/ml) was 0 mm and the Colony diameter (ADK-28; cycloheximide 20 μg/ml) was 0 mm. The Colony diameter (ADK-28; cycloheximide 40 μg/ml) was 0 mm, the Colony diameter (ADK-28; cycloheximide 80 μg/ml) was 0 mm and the Colony diameter (ADK-42; cycloheximide 5 μg/ml) was 2.4 mm. The Colony diameter (ADK-42; cycloheximide 10 μg/ml) was 0 mm, the Colony diameter (ADK-42; cycloheximide 20 μg/ml) was 0 mm and the Colony diameter (ADK-42; cycloheximide 40 μg/ml) was 0 mm. The Colony diameter (ADK-42; cycloheximide 80 μg/ml) was 0 mm, the Colony diameter (ADK-8; cycloheximide 5 μg/ml) was 7.7 mm and the Colony diameter (ADK-8; cycloheximide 10 μg/ml) was 1.1 mm. The Colony diameter (ADK-8; cycloheximide 20 μg/ml) was 0 mm, the Colony diameter (ADK-8; cycloheximide 40 μg/ml) was 0 mm and the Colony diameter (ADK-8; cycloheximide 80 μg/ml) was 0 mm.
